From publication PMC9147060, “Elucidating Pathway and Anesthetic Mechanism of Action of Clove Oil Nanoformulations in Fish” (Pharmaceutics, 2022)

Biological target: T1, GABAA receptor (γ-aminobutyric acid subtype A receptor)
T1 construct: gene Gabra1; native receptor mixture in cerebral cortical synaptosomal membranes of adult male rats
Experiment: [3H]muscimol binding to rat cortical membranes, filtration
Conditions: enhancement of 5 nM [3H]muscimol binding; 50 mM Tris-HCl pH 7.4, 0-4 °C, 1 h; in DMSO; positive modulation

- EC50: 1250 µM
Structure (SMILES): C=CCc1ccc(O)c(OC)c1 [eugenol]
